We go through three compounds from patent US12311028B2, “Polymer-based macromolecular prodrugs” (The Children's Hospital of Philadelphia, priority 2018, dated 2025).

Entries after “also recorded” stand apart in the source; their conditions may differ. Where two headings read alike, the source gives them in different places.

In experiment [1] the test system is NLF and ABCG2-expressing clones. Nature of the experiment: Growth of NLF and ABCG2-expressing clones in presence of SN38 or SN22 (IncuCyte). Format: cell-based, human. Here is the method: FIG. 7: ABCG2 expression and growth of NLF and transfected clones. (A) Western analysis was performed on NLF and three single-cell clones with an ABCG2 antibody (Santa Cruz), compared to an actin control. Clones 1, 2 and 3 had trace, low and, intermediate levels of ABCG2 expression, respectively. (B) Growth of NLF and ABCG2-expressing clones in the presence of SN38 or SN22 (50 ng/ml). Growth shown at day 4.
To evaluate susceptibility of SN38 and SN22 to ABCG2 efflux, an ABCG2-null NB cell line, NLF, was identified. NLF was transfected with an ABCG2 expression vector, and then selected single-cell clones with trace, low, and intermediate levels of ABCG2 expression (FIG. 7A). Next, the sensitivity of NLF and ABCG2-expressing clones to different concentrations of SN38 or SN22 and monitored growth continuously using IncuCyte® S3 Live-Cell Analysis System was assessed.

Experiment [2] concerns BE(2)C cells. The note with it: free SN22 with or without unmodified Pluronic F-108.
The subject of experiment [3] is BE(2)C cells. Nature of the experiment: Antiproliferative effect of [PEG-SN38-BG]8 on BE(2)C with/without vorinostat or entinostat. Format: cell-based, human. The note with it: 6 hr exposure, 25-100 nM SN-38 equivalent, vorinostat 1.25-5.0 μM, 6 days post treatment.
Procedure: Cell growth was measured by bioluminescence. BE(2)C cell survival data at 6 days post treatment were analyzed for hyperadditivity by applying a model z=z0+A·x+B·y+C·[x·y] and determining the significance of the interaction term C.
The effect on cell growth kinetics was studied in comparison to free SN-38 or bipartite [PEG-SN38]8 lacking functionalization with BG (A). Cells were exposed for 4 hr to equivalent concentrations of the compounds, corresponding to 125 nM of SN-38. In an additional experiment (B), the response to treatment with [PEG-SN38-BG]8 was examined with/without a HDAC1-specific inhibitor, entinostat (0-5 μM). The doses of the prodrug were varied within a range equivalent to 0-100 nM SN-38, and the exposure duration was fixed at 6 hr. Cell growth was monitored by bioluminescence. The response is shown as % cell survival (mean±SD) at 6 days post-treatment. Experimental data were analyzed for hyperadditivity using a model z=z0+A·x+B·y+C·[x·y] and determining the significance of the interaction term C.
To evaluate the specific contribution of the targeting ligand incorporated in the prodrug structure, the cell growth inhibitory activity of [PEG-SN38-BG]8 on NET-expressing, chemoresistant NB cells was compared to that of a control molecule, [PEG-SN38]8, constructed analogously but without the BG moiety.
In experiment [4] the test system is BE(2)C cells. Nature of the experiment: Antiproliferative effect of PF68-SN38-BG vs PF68-SN38 and SN-38 on BE(2)C, 15-min exposure. Format: cell-based, human. As to conditions: SN-38 equivalent dose 0-25 nM. The source says: Blank Pluronic F-68 had no effect on cell growth.
The test system of experiment [5] is BE(2)C cells. The note with it: derived at relapse; cited from earlier work.
In experiment [6] the test system is BE(1) cells. As to conditions: derived at diagnosis; cited from earlier work.
The subject of experiment [7] is orthotopic BE(2)C xenografts. Format: in vivo. As to conditions: PF108-(SN22)2 10 mg/kg SN22 IV once a week x4; irinotecan 10 mg/kg SN38 twice a week. The source says:
Saline or chemically unmodified Pluronic F-108 were used as negative controls.

Experiment [8] deals with orthotopic IMR-32 xenografts. Nature of the experiment: Therapeutic efficacy of PF108-(SN22)2 in orthotopic IMR-32 xenograft model. Format: in vivo, mice. The note with it: PF108-(SN22)2 once a week; irinotecan 2x a week; 10 mg drug per kg. The source says:
Mice were inoculated with 10^6 luciferase-expressing IMR-32 cells. […] Tumor-associated signal was monitored by quantitative bioluminescence. Quantitative data are shown as mean±SD.

Experiment [9] deals with SKNBE(2)C orthotopic xenograft. Nature of the experiment: NB orthotopic xenograft model with chemo-resistant SKNBE(2)C. Format: in vivo, mice. The note with it: once a week x4 weeks; prodrugs 10 mg/kg/dose, CPT-11 15 mg/kg/dose.
Procedure: Chemoresistant, luciferase transfected, SKNBE(2)C cells (107) were injected in the perineal fat pad of nude mice. Mice were divided into five groups: no treatment, or treatment with blank PEG, CPT-11, PEG-[SN38]4 or PEG-[SN22]4 (10 animals per group). Treatment started when tumors reached about 0.2 cm^3.
Mice were divided into five groups: no treatment, or treatment with blank PEG, CPT-11, PEG-[SN22]4 or PEG-[SN38]4 (10 animals per group). Treatment started when tumors reached about 0.2 cm^3.
Next, PEG-[SN22]4, PEG-[SN38]4 and CPT-11 in a NB orthotopic xenograft mouse model with the chemo-resistant NB line SKNBE(2)C. BE(2)C cells were transfected with a luciferase expression vector to allow for bioluminescent imaging. Mice were treated once a week for 4 weeks with either PEG-[SN22]4 (10 mg/kg/dose), PEG-[SN38]4 (10 mg/kg/dose) or CPT-11 (15 mg/kg/dose).
BE(2)C cells were transfected with a luciferase expression vector to allow for bioluminescent imaging. Mice were treated once a week for four weeks with either PEG-[SN22]4 (10 mg/kg/dose), PEG-[SN38]4 (10 mg/kg/dose) or CPT-11 (15 mg/kg/dose).
Experiment [10] has as its system spontaneous NB tumors, TH-MYCN transgenic mouse. Nature of the experiment: TH-MYCN transgenic mouse model of de novo NB. Format: in vivo, mice. The note with it: once a week x4 weeks; PEG-[SN22]4 10 mg/kg/dose, CPT-11 15 mg/kg/dose.
Procedure: Mice were treated with saline (N=8), CPT-11 (15 mg/kg/dose; N=7), PEG-[SN38]4 (10 mg/kg/dose; N=6) or PEG-[SN22]4 (10 mg/kg/dose; N=6) IV by tail vein once a week×4 weeks. Treatments started when the mice were about 5 weeks old with a tumor size about 1-2 cm^3.
PEG-[SN22]4 was also used to treat de novo NBs in a TH-MYCN transgenic mouse model. Spontaneous tumors develop in paraspinal ganglia or in the adrenal gland by 4-5 weeks in almost all mice with two copies of the transgene. Mice were divided into 4 groups once tumors became palpable (4-5 weeks): control-no treatment; CPT-11 treatment (15 mg/kg/dose), PEG-[SN38]4 (10 mg/kg/dose), or PEG-[SN22]4 (10 mg/kg/dose). Mice were treated once a week for 4 weeks. […] Mice were sacrificed when they became symptomatic from tumor burden.
Mice. Six-week-old Foxn1^nu/Foxn1^nu (JAX stock #007850) mice from Jackson Laboratories are used. Mice are maintained under humidity- and temperature-controlled conditions in a light/dark cycle that is set at 12-hour intervals. These mice are in a 129-SvJ background. Mice homozygous for the transgene generally develop tumors within 4-5 weeks.
Experiment [11] deals with orthotopic BE(2)C xenografts. Kind of experiment: Therapeutic efficacy of [PEG-SN38-BG]8 in orthotopic model of refractory NB. Format: in vivo, mice. Here is the method: FIG. 12: Therapeutic efficacy of [PEG-SN38-BG]8 in an orthotopic model of refractory, high-risk NB. Athymic nude (nu/nu) mice were inoculated with BE(2)C cells (10^6) stably expressing luciferase. Treatment with [PEG-SN38-BG]8 was administered intravenously at a dose equivalent to 10 mg/kg of SN-38 twice a week for 4 weeks. […] A group of mice administered with saline (no treatment) was used as a negative control. In an additional group, the prodrug was administered using the same regimen to animals allowed to reach a 10-fold larger tumor size (2.0 cm^3, ‘large tumors’). Tumor-associated signal was monitored by quantitative bioluminescence. Data presented graphically in (A) are expressed as mean±SD. The survival curves for respective animal groups over a 190-day period are shown in (B).
FIG. 16: Therapeutic efficacy of [PEG-SN38-BG]8 in an orthotopic model of refractory, high-risk NB. Athymic nude (nu/nu) mice were inoculated with BE(2)C cells (10^6) stably expressing luciferase. Treatment with [PEG-SN38-BG]8 was administered intravenously at a dose equivalent to 10 mg/kg of SN-38 twice a week for 4 weeks. […] Groups of mice administered either with blank PEG or saline (no treatment) were used as negative controls (A). […] Tumor-associated signal was monitored by quantitative bioluminescence. Data are presented as mean±SD.

In experiment [12] the test system is orthotopic IMR-32 xenografts. Kind of experiment: Therapeutic efficacy of [PEG-SN38-BG]8 in orthotopic IMR-32 xenograft model. Format: in vivo, mice. As to conditions: doses equivalent to 10 mg SN-38 per kg, 2x week over 4 weeks, from day 21. The source says:
FIG. 15: Therapeutic efficacy of [PEG-SN38-BG]8 in an orthotopic xenograft model of chemo-naïve, MYCN-amplified NB. Mice were inoculated with 10^6 luciferase-expressing IMR-32 cells. […] Tumor-associated signal was monitored by quantitative bioluminescence. Data in (A) are shown as mean±SD. Representative bioluminescent images for each group are included in (B).
FIG. 17: Therapeutic efficacy of [PEG-SN38-BG]8 in an orthotopic xenograft model of chemo-naïve, MYCN-amplified NB. Mice were inoculated with 10^6 luciferase-expressing IMR-32 cells. […] Tumor-associated signal was monitored by quantitative bioluminescence. Data in (A) are shown as mean±SD. Representative images are included in (B).
The effectiveness of the tripartite prodrug strategy in providing sustained anticancer effects against aggressive NB tumors was shown experimentally in an orthotopic IMR-32 xenograft model (FIG. 15).

For experiment [13], the system named is disseminated BE(2)C tumor deposits. Kind of experiment: Therapeutic efficacy of [PEG-SN38-BG]8 in model of metastatic, refractory NB. Format: in vivo, mice. The note with it: from day 25, 4 weeks 2x/week; prodrug 10 mg SN-38 per kg, irinotecan 15 mg/kg. Here is the method:
Mice were injected through the tail vein with 10^6 luciferase-expressing BE(2)C cells. […] Tumor-associated signal was monitored by quantitative bioluminescence ((A), data shown as mean±SD). Representative images are included in (B).

Experiment [14] deals with orthotopic BE(2)C xenograft tumors. Nature of the experiment: Therapeutic efficacy of NET-directed Pluronic F-108 tripartite prodrug in refractory NB model. Format: in vivo, mice. As to conditions: 4 weeks 2x/week; constructs 10 mg SN-38 per kg, irinotecan 15 mg/kg. The source says: FIG. 21: Therapeutic efficacy of NET-directed delivery in a model of refractory NB. Mice were inoculated in the suprarenal fat pad with 10^6 luciferase-expressing BE(2)C cells. […] Alternatively, tumors were allowed to reach 2 cm^3 before starting therapy (B). Disease progression was monitored by quantitative bioluminescence. Tumor growth data are shown as mean±SD.

`CCc1c2c(nc3ccccc13)-c1cc3c(c(=O)n1C2)COC(=O)[C@]3(O)CC` [SN22, 7-ethyl-camptothecin]: in [1] (NLF clones with trace, low, intermediate ABCG2, 50 ng/ml, day 4), the “sensitivity of clones with higher ABCG2 levels” value is recorded as “remained fully sensitive”. The “responsiveness of BE(2)C cells vs IMR-32” value in [2] is “strongly shifted in comparison to IMR-32 toward higher doses and longer exposure durations”.

With `CCc1c2c(nc3ccc(O)cc13)-c1cc3c(c(=O)n1C2)COC(=O)[C@]3(O)CC` [SN38, 7-ethyl-10-hydroxy-camptothecin], the “sensitivity of clones with higher ABCG2 levels” value in experiment [1] is given as “increasingly resistant”. Further, the “potentiation of antiproliferative effect by vorinostat” value in experiment [3] is recorded as “moderately synergized”. The “BE(2)C cell growth inhibition” value in experiment [4] is on record as “marginally inhibited”. The “concentration required for cell growth inhibition by 90% (therapeutic threshold)” value in [5] was 25 ng/mL. For the same compound, the “concentration required for cell growth inhibition by 90%” value in experiment [6] was 2 ng/mL.

Consider `CCc1c2c(nc3ccc(OC(=O)N4CCC(N5CCCCC5)CC4)cc13)-c1cc3c(c(=O)n1C2)COC(=O)[C@]3(O)CC` [irinotecan], for which the “tumor growth (bioluminescence)” value was “marginal antitumor effect” in experiment [7] and “marginal effect” in experiment [14]. For the same compound, the figures for the “tumor response (bioluminescence)” value in experiment [8] and in experiment [12] were “only a transient response” and “tumors starting to regrow immediately after treatment cessation; also recorded: able to inhibit tumor growth for the duration of treatment”, respectively. Further, the “tumor response during treatment” value in experiment [9] was “had no effect; also recorded: had very little effect; also recorded: only slightly delayed”. For the same compound, the tumor response entry in experiment [10] is listed as “only slightly delayed”. For the same compound, the “tumor growth (bioluminescence), FIG. 16A” value in [11] (2x/week over 4 weeks, prodrugs 10 mg/kg SN-38, irinotecan 15 mg/kg) is on record as “no antitumor effect”. For the same compound, the “tumor growth (bioluminescence), FIG. 12” value in experiment [11] ([PEG-SN38-BG]8 10 mg/kg SN-38 IV twice a week x4 weeks, irinotecan 15 mg/kg twice a week) was “marginal therapeutic effect and survival extension”. In [11] (small tumors, twice a week x4 weeks), the “t50% survival (event-free)” value came out at 20 days. In addition, the “disease progression (bioluminescence)” value in experiment [13] is given as “no significant effect on the disease progression”.
